The values below come from publication PMC8305768, “Design, Synthesis and Antiparasitic Evaluation of Click Phospholipids” (Molecules, 2021).

A short description of data set [1]: Cytotoxicity against THP-1 macrophages (MTT). The format is cell-based. Conditions: human, PMA-differentiated THP-1 macrophages, read-out: Toxicity CC50 ± SD Or CC50 Interval Estimation. On the procedure: The effect of compounds selected compounds on THP-1-derived macrophages was assessed by the colorimetric MTT assay (3-(4,5-dimethylthiazol-2-yl)-2,5-diphenyl tetrazolium bromide). Briefly, 1 × 10^5 THP-1 cells/mL were differentiated into macrophages by addition of 20 ng/mL of phorbol-myristate 13-acetate (PMA, Sigma, Saint Louis, MI, USA) for 18 h, followed by replacement with fresh medium for 24 h. Cells were incubated with 100 µL of compounds ranging from 100 to 1 µM after dilution in the RPMI complete medium containing a maximum amount of 1% DMSO. After incubation for 72 h, the medium was removed and 100 µL of 0.5 mg/mL MTT solution diluted in RPMI was added. Plates were incubated for an additional 4 h to allow viable cells to convert MTT into a purple formazan product. Solubilization of formazan crystals was achieved by the addition of 2-propanol and absorbance was read at 570 nm using a Synergy 2 Multi-Mode Reader (Biotek, Winooski, VT, USA). Cytotoxicity was evaluated by the determination of the CC50 value (drug concentration that reduced the percentage of viable cells in 50%) and calculated by non-linear regression analysis using GraphPad Prism version 8.1.1 for Windows (GraphPad Software, San Diego, CA, USA).

The subject of a further data set is A549 cells. Kind of data set: Cytotoxicity assay A549 (CellTiter-Glo). The format is cell-based, human. The following applies: compounds 10 μM; miltefosine 10 μM or 1 μM. The text has this:
Early ADMET profiling: The early ADMET profiling of the new derivatives involved a group of assays widely used in drug development as part of the preclinical in vitro toxicity studies. In particular our panel included hERG inhibition, five cytochromes P450 (CYP1A2, CYP2C9, CYP2C19, CYP2D6 and CYP3A4), two cell-lines (A549, epithelial human lung adenocarcinoma, WI38 and foetal lung fibroblasts), Aurora B kinase and mitochondrial toxicity, in addition to the parasite relevant toxicity against THP1 macrophages. The compounds were tested at 10 μΜ, whilst the miltefosine control was tested at 10 μΜ or 1 μM. The toxicity of the new click phospholipids is depicted in Figure 3 in a traffic light format (from red through yellow to green for decreasing ADMET liabilities).
Cytotoxicity assay: A549 cells and WI-38 cells were grown on surface-modified T175 cell culture flasks in Dulbecco’s modified Eagle medium with 10% foetal calf serum (FCS), streptomycin (100 μg/mL) and 100 U/mL penicillin G. At about 80% confluency, cells were washed, trypsinized, resuspended and counted in RPMI-1640 medium before seeding (in triplicate) into white 384-well microtiter plates (20 μL) at 500 cells/well and incubated at 37 °C in the presence of 5% CO2 for 24 h. A total of 20 μL/well of CellTiter-Glo (CTG) reagent (Promega Corp., Madison, WI, USA) was added to each well, and plates were read using an EnVision Multilabel 2103 Reader after a 10-min incubation in the dark. Dose–response assays for compounds made use of 11-point curves. Each test compound (200 nL of 10 mM top concentration in 100% v/v DMSO) was added to cells seeded in polystyrene 384-well cell culture microtiter plates using the Echo 550 Liquid Handler and read after 24 h of incubation at 37 °C in the presence of 5% CO2 using CTG as described above. The compounds/positive control (paclitaxel with final concentration of 10 μM and 1% v/v DMSO) and no compound (final 1% v/v DMSO) were added into the 384-well plates (200 nL/well; 1% v/v DMSO) using the Echo 550 Liquid Handler. The raw luminescence signal of each sample was converted into the percentage of cell growth.

Data set [2] has as its system L. infantum (MHOM/MA/67/ITMAP-263) intracellular amastigotes. Description: Activity against L. infantum MHOM/MA/67/ITMAP-263 intramacrophage amastigotes (luciferase, THP-1). The format is cell-based, Leishmania infantum. Conditions: for IC50 / inhibition at 1 µM / inhibition at 10 µM: Leishmania infantum; for IC50: THP-1, 72 h, read-out: L. infantum (MHOM/MA/67/ITMAP-263) Intracellular Amastigotes IC50 ± SD; for inhibition at 1 µM / inhibition at 10 µM: THP-1; for inhibition at 1 µM: read-out: Mean % Inhibition ± SD at (1 μM) (converted); for inhibition at 10 µM: read-out: Mean % Inhibition ± SD at 10μM. On the procedure:
A cloned line of L. infantum (MOM/ MA671TMAP263) promastigotes were maintained in RPMI 1640 medium supplemented with 10% heat-inactivated foetal bovine serum (FBS), 2 mM L-glutamine, 20 mM HEPES and 1% Penn/Strep. Maintenance of promastigotes was done in T-25 flasks at 26 °C by subpassage at […] every 5−6 days. L. infantum axenic amastigotes expressing episomal luciferase were maintained in MAA/20 (axenic amastigote medium) at 37 °C under a 5% CO2 environment with subpassages every 5 days. LUC-positive parasites were selected by addition of geneticin sulphate (G418) to the culture at 60 μg/mL.
The efficacy of compounds against L. infantum intracellular amastigotes was determined according to the literature with slight modifications. Briefly, 1 × 10^6 THP-1 cell/mL were seeded in a 96 well flat bottom plate (100 µL/well) and differentiated into macrophages by addition of 20 ng/mL of phorbol-myristate 13-acetate (PMA, Sigma, Saint Louis, MI, USA) for 18 h, followed by replacement with fresh medium for 24 h. Then these cells were infected with luciferase-expressing L. infantum axenic amastigotes in a macrophage:amastigotes ratio of 1:10 for 4 h at 37 °C, 5% CO2. Non-internalized parasites were washed and compounds were added at different concentrations in a final volume of 100 µL. After 72 h of incubation, the media was substituted by 100 µL of PBS. Then of 25 µL of Glo-lysis buffer from the Steady-Glo Luciferase Assay System (Promega, Madison, WI, USA) was added mixed and incubated for 10 min with agitation at 100 rpm. Finally, 30 µL of the Steady-Glo reagent (Promega, Madison, WI, USA) was then added to the plate and was incubated for 15 min with agitation at 100 rpm and then the content of each well was transferred to white-bottom 96-well plates. Luminescence intensity was read using a Synergy 2 Multi-Mode Reader (Biotek, Winooski, VT, USA). The antileishmanial effect was evaluated by the determination of the IC50 value (concentration required to inhibit growth in 50%) and calculated by the non-linear regression analysis using GraphPad Prism version 8.1.1 for Windows (GraphPad Software, San Diego CA, USA).

The mark [3] stands for this setting: CC50 THP-1 / IC50 L. infantum MHOM/MA/67/ITMAP-263.

Molecules are shown by their SMILES. Structures can show the parent of a compound that is named as a salt. Where two headings read alike, the source gives them in different places.

In the case of `CCCCCCCCc1noc(CCCCCCCCCCOP(=O)([O-])OCC[N+](C)(C)C)n1` [Compound 54, 10-(3-octyl-1,2,4-oxadiazol-5-yl)decyl (2-(trimethylammonio)ethyl) phosphate inner salt], the half-maximal cytotoxic concentration (CC50) at 72 h in data set [1] is > 10 µM. Further, the “% cell growth ± SD at 10 μΜ A549” value with A549 cells was 85.82%. Also, the “Selectivity Index CC50/IC50” value in data set [2] (setting [3]) worked out at 13.6. In addition, in data set [2], the IC50 was determined as 0.8 ± 0.18 µM. In addition, the inhibition at 1 µM in data set [2] (72 h) is 67.1%. Further, the inhibition at 10 µM in data set [2] (10 μM, 72 h, N.A. = inactive) was found to be 100.4 ± 1%.
Turning to `C[N+](C)(C)CCOP(=O)([O-])OCCCCCCCCCCCn1cc(CC2CCCC2)nn1` [Compound 28, 11-(4-(cyclopentylmethyl)-1H-1,2,3-triazol-1-yl)undecyl (2-(trimethylammo nio)ethyl) phosphate inner salt], the CC50 at 72 h in data set [1] was > 100 µM. Besides, the “% cell growth ± SD at 10 μΜ A549” value in the data set with A549 cells was determined as 121.51%. Moreover, the “Mean % Inhibition ± SD at 10μM” value in data set [2] (10 μM, 72 h, N.A. = inactive) is “inactive”.
Regarding `C[N+](C)(C)CCOP(=O)([O-])OCCCCCCCCCCCn1cc(CCCCCCCCC(=O)O)nn1` [Compound 34, 11-(4-(8-carboxyoctyl)-1H-1,2,3-triazol-1-yl)undecyl (2-(trimethylammonio)ethyl) phosphate inner salt], the 50% cytotoxic concentration (CC50) at 72 h in data set [1] was 50 to 100 µM. In addition, the inhibition at 10 µM in data set [2] (10 μM, 72 h, N.A. = inactive) was determined as 10 ± 9%.
Regarding `CCCCCCCCCCCc1nnc(CCCCCCCCCCOP(=O)([O-])OCC[N+](C)(C)C)o1` [Compound 66, 2-(trimethylammonio)ethyl (10-(5-undecyl-1,3,4-oxadiazol-2-yl)decyl) phosphate inner salt], the cytotoxic concentration (CC50) at 72 h in data set [1] was 25 to 50 µM. In addition, the “% cell growth ± SD at 10 μΜ A549” value with A549 cells is recorded as 90.83%. In data set [2] (72 h), the inhibition at 1 µM was 3.3%. Further, in data set [2] (10 μM, 72 h, N.A. = inactive), the inhibition at 10 µM came to 94.2 ± 3%.
For the compound `C[N+](C)(C)CCOP(=O)([O-])OCCCCCn1cc(CCCCCCCCNC(=O)OCc2ccccc2)nn1` [Compound 31, 5-(4-(8-(((benzyloxy)carbonyl)amino)octyl)-1H-1,2,3-triazol-1-yl)pentyl (2-(trimethylammonio)ethyl) phosphate inner salt], the CC50 at 72 h in data set [1] is > 100 µM. The “% cell growth ± SD at 10 μΜ A549” value in the data set on A549 cells was 108.64%.
On to `CCCCCCCCc1noc(CCCCCOP(=O)([O-])OCC[N+](C)(C)C)n1` [Compound 53, 5-(3-octyl-1,2,4-oxadiazol-5-yl)pentyl (2-(trimethylammonio)ethyl) phosphate inner salt], for which the CC50 at 72 h in data set [1] was 12.5 to 25 µM. The “% cell growth ± SD at 10 μΜ A549” value with A549 cells was determined as 87.74%. For the same compound, the inhibition at 1 µM in data set [2] (72 h) is 34.6%. For the same compound, the inhibition at 10 µM in data set [2] (10 μM, 72 h, N.A. = inactive) turned out to be 98.4 ± 1%.
`CCCCCCCCCCc1cc(CCCCCCCCCCOP(=O)([O-])OCC[N+](C)(C)C)no1` [Compound 41, 10-(5-decylisoxazol-3-yl)decyl (2-(trimethylammonio)ethyl) phosphate inner salt]: in data set [1], the CC50 at 72 h was 12.5 to 25 µM. For the same compound, the “% cell growth ± SD at 10 μΜ A549” value with A549 cells worked out at 85.15%. For the same compound, in data set [2] (10 μM, 72 h, N.A. = inactive), the inhibition at 10 µM came out at 93.7 ± 10%.
On to `C[N+](C)(C)CCOP(=O)([O-])OCCCCCn1cc(CCCCCCCCN)nn1` [Compound 35, 5-(4-(8-aminooctyl)-1H-1,2,3-triazol-1-yl)pentyl (2-(trimethylammonio)ethyl) phosphate inner salt], for which the half-maximal cytotoxic concentration (CC50) at 72 h in data set [1] is > 100 µM. Besides, the “% cell growth ± SD at 10 μΜ A549” value in the data set with A549 cells was 100.96%.
Consider `C[N+](C)(C)CCCOP(=O)([O-])OCCCCCCCCCCCn1cc(CC2CCCCC2)nn1` [Compound 33, 11-(4-(cyclohexylmethyl)-1H-1,2,3-triazol-1-yl)undecyl (3-(trimethylammonio)propyl) phosphate inner salt], for which the CC50 at 72 h in data set [1] was > 10 µM. Further, the “% cell growth ± SD at 10 μΜ A549” value in the data set with A549 cells is reported as 114.14%. Moreover, the inhibition at 10 µM in data set [2] (10 μM, 72 h, N.A. = inactive) amounted to 12 ± 5%.
Take `CCCCCc1cn(CCCCCCCCCCCOP(=O)([O-])OCC[N+](C)(C)C)nn1` [Compound 25, 11-(4-pentyl-1H-1,2,3-triazol-1-yl)undecyl (2-(trimethylammonio)ethyl) phosphate inner salt]: in data set [1], the 50% cytotoxic concentration (CC50) at 72 h was > 100 µM. In addition, in the data set with A549 cells, the “% cell growth ± SD at 10 μΜ A549” value came to 114.88%. In addition, the “Selectivity Index CC50/IC50” value in data set [2] (setting [3]) is given as >3. For the same compound, the IC50 in data set [2] is 34.3 ± 19.4 µM. For the same compound, in data set [2] (10 μM, 72 h, N.A. = inactive), the inhibition at 10 µM was 32 ± 19%.
Regarding `C[N+](C)(C)CCOP(=O)([O-])OCCCCCCCCCCCn1cc(CCCCCCCCNC(=O)OCc2ccccc2)nn1` [Compound 32, 11-(4-(8-(((benzyloxy)carbonyl)amino)octyl)-1H-1,2,3-triazol-1-yl)undecyl (2-(trimethylammonio)ethyl) phosphate inner salt], in data set [1], the half-maximal cytotoxic concentration (CC50) at 72 h was > 100 µM. Besides, in data set [2] (10 μM, 72 h, N.A. = inactive), the inhibition at 10 µM is 5 ± 18%.
Turning to `C[N+](C)(C)CCOP(=O)([O-])OCCCCCCCCCCCn1cc(CC2CCCCC2)nn1` [Compound 29, 11-(4-(cyclohexylmethyl)-1H-1,2,3-triazol-1-yl)undecyl (2-(trimethylammonio)ethyl) phosphate inner salt], the CC50 at 72 h in data set [1] is > 100 µM. Moreover, in the data set with A549 cells, the “% cell growth ± SD at 10 μΜ A549” value was found to be 120.63%. Further, the inhibition at 10 µM in data set [2] (10 μM, 72 h, N.A. = inactive) stood at 43 ± 1%.
Regarding `CCCCCCCc1nnc(CCCCCCCCCCOP(=O)([O-])OCC[N+](C)(C)C)o1` [Compound 65, 10-(5-heptyl-1,3,4-oxadiazol-2-yl)decyl (2-(trimethylammonio)ethyl) phosphate inner salt], the CC50 at 72 h in data set [1] is 12.5 to 25 µM. Moreover, the “% cell growth ± SD at 10 μΜ A549” value in the data set on A549 cells is listed as 90.48%. For the same compound, the inhibition at 1 µM in data set [2] (72 h) is 4.8%. The inhibition at 10 µM in data set [2] (10 μM, 72 h, N.A. = inactive) was 92.9 ± 5%.
Consider `CCCCCCCCCCCCCCCCOP(=O)([O-])OCC[N+](C)(C)C` [Miltefosine, hexadecylphosphocholine, reference compound], for which the CC50 at 72 h in data set [1] is 15.9 ± 1.2 µM. Moreover, the “% cell growth ± SD at 10 μΜ A549” value in the data set on A549 cells came out at 95.80%. In data set [2], the “Selectivity Index CC50/IC50” value was 4.9 and the IC50 worked out at 3.2 ± 1.4 µM.
